Test results taken from paper PMC10870750 (ACS Polymers Au, 2023).
Positions of bridges follow the written chain, without caps; N, C: chain ends. Non-standard residues stand in square brackets, D forms with d. Residues, ends and D or L forms follow the SMILES beside them. S5 = C=CCCC[C@](C)(N)C(=O)O

How the values were obtained:
Dynamic light scattering = type: physicochemical; conditions: 200 μM in 10 mM PBS; from lack of reliable DLS data and visibly clear solutions
[1] = tested on: human red blood cells (RBCs); conditions: 50 μM; ref our previous study; cited from earlier work

Compound: CC[C@H](C)[C@H](NC(=O)[C@H](C)NC(=O)[C@H](CCCCN)NC(=O)[C@H](CO)NC(=O)[C@H](CCC(=O)O)NC(=O)[C@@H]1CCCN1C(C)=O)C(=O)N[C@@H](CCCCN)C(=O)N[C@@]1(C)CCCC=CCCC[C@@](C)(C(=O)N[C@H](C(=O)N[C@@H](CO)C(=O)N[C@@H](CCCCN)C(=O)N[C@@H](CCC(=O)O)C(=O)N[C@@H](CCCNC(=N)N)C(=O)N[C@@H](CO)C(=O)N[C@@H](CCCCN)C(=O)N[C@@H](CCCNC(=N)N)C(=O)N[C@@H](CO)C(=O)N2CCC[C@H]2C(N)=O)C(C)C)NC(=O)[C@H](CCCCN)NC(=O)[C@H](CC(C)C)NC(=O)[C@H](CC(C)C)NC1=O [stapled Ac-P9] (Ac-PESKAIK[S5]LLK[S5]VSKERSKRSP-NH2; staple 8-12)
- solubility / aggregation state in solution (Dynamic light scattering): soluble or exists in very small aggregates
- hemolysis [1]: does not induce significant hemolysis
